Reference: patent publication US10538498B2, “1,3,4-oxadiazole sulfonamide derivative compounds as histone deacetylase 6 inhibitor, and the pharmaceutical composition comprising the same” (Chong Kun Dang Pharmaceutical Corp., priority 2015, dated 2020)

How the values were obtained:
human recombinant HDAC6 = target: T1, human recombinant HDAC6 (Homo sapiens, UniProt Q9UBN7); experiment: HDAC6 enzyme activity inhibition assay (HDAC Fluorimetric Drug Discovery Kit); format: biochemical; conditions: for HDAC6 selectivity (fold): HDAC1 vs HDAC6; for IC50: same protocol as the HDAC1 enzyme activity test
T1 construct: purchased Calbiochem 382180
T1 sequence (Q9UBN7 1-1215): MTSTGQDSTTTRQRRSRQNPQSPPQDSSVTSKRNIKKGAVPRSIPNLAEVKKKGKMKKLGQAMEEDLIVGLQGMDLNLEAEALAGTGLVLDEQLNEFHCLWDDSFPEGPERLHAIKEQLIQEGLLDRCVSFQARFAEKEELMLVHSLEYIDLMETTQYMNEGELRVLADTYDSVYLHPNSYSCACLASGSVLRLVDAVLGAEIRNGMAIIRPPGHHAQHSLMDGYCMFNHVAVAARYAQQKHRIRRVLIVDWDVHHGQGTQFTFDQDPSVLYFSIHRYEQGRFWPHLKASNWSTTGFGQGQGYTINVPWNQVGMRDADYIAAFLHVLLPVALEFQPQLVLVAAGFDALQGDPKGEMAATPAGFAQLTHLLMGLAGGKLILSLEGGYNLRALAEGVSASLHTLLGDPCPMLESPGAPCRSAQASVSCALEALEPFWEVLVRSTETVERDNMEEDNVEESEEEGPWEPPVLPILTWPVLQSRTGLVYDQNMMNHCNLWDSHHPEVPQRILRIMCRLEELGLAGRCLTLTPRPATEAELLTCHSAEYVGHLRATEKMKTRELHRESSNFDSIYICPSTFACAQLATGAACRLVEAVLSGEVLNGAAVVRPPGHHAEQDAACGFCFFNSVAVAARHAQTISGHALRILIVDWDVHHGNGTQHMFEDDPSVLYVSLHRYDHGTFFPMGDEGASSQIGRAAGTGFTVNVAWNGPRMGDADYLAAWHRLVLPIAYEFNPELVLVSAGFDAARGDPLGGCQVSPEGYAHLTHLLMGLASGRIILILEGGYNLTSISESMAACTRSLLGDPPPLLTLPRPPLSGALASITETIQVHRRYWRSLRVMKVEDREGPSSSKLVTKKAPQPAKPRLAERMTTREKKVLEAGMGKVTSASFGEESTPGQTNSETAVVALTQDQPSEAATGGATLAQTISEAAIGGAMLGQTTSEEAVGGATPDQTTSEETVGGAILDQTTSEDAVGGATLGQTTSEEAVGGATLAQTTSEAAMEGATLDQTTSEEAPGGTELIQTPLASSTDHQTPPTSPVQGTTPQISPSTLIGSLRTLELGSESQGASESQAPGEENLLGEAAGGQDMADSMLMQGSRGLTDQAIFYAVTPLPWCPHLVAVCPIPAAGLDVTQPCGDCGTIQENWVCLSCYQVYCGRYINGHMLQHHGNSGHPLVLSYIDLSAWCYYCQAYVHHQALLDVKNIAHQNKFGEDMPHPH
Procedure, shortened: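 Fluorescence (Ex 360, Em 460) after 30 min developer step; IC50 from dose-response. Reaction: 0.3 μg recombinant enzyme, 10 μM Fluor de Lys-SIRT1 substrate, 5-fold compound dilutions, 60 min at 30° C. Same protocol for both isoforms.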

human recombinant HDAC1 = target: T2, human recombinant HDAC1 (Homo sapiens, UniProt Q13547); experiment: HDAC1 enzyme activity inhibition assay (HDAC Fluorimetric Drug Discovery Kit); format: biochemical; conditions: 0.3 μg enzyme, 10 μM substrate, 30° C., 60 minutes
T2 construct: purchased Enzo Life Science BML-SE456
Experimental: In order to examine the HDAC6 selectivity of the compounds of formula I of the present invention by HDAC1 and HDAC6 enzymatic activity inhibition assays, an experiment was performed using a conventional substance as a control.
HDAC enzyme activity was measured using a HDAC Fluorimetric Drug Discovery Kit (BML-AK511, 516, Enzo Life Science). For the HDAC1 enzyme activity test, human recombinant HDAC1 (BML-SE456) was used as an enzyme source, and Fluor de Lys®-“SIRT1 (BNL-KI177) was used as a substrate. A 5-fold dilution of the compound was seeded into a 96-well plate, and then 0.3 μg of the enzyme and 10 μM of the substrate were added to each well of the plate and allowed to react at 30° C. for 60 minutes. Then, Fluor de Lys®-Developer II (BML-KI176) was added thereto and allowed to react for 30 minutes, after which the fluorescence value (Ex 360, Em 460) was measured using a multi-plate reader (Flexstation 3, Molecular Device). The HDAC6 enzyme was tested using human recombinant HDAC6 (382180) (Calbiochem) according to the same protocol as the HDAC1 enzyme activity test method. Based on the resulting values, each IC50 value was calculated using GraphPad Prism4.0 program.

T2 sequence (Q13547 whole entry): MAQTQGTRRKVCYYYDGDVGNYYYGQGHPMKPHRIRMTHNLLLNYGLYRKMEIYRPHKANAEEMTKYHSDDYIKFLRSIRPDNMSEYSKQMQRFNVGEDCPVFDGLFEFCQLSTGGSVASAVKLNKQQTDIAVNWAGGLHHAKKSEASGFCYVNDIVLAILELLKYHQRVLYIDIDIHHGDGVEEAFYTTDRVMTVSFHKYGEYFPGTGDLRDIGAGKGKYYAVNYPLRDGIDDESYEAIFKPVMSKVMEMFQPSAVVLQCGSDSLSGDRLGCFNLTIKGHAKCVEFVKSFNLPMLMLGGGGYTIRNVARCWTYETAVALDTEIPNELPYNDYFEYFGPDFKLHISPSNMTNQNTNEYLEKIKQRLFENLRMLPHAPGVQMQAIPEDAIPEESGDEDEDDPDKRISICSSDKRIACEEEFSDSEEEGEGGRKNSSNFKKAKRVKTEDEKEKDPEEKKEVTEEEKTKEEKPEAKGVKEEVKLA

Row | Compound | HDAC6 selectivity (fold) (human recombinant HDAC6) | IC50 (human recombinant HDAC6) [nM] | IC50 (human recombinant HDAC1) [nM]
1 | CS(=O)(=O)N(Cc1ccc(-c2nnc(C(F)(F)F)o2)cc1)c1cccnc1 [Compound 11088, N-(pyridin-3-yl)-N-(4-(5-(trifluoromethyl)-1,3,4-oxadiazol-2-yl)benzyl)methanesulfonamide] | 404 | 127 | 51400
2 | CS(=O)(=O)N(Cc1ccc(-c2nnc(C(F)(F)F)o2)cc1F)c1cccnc1 [Compound 11089, N-(2-fluoro-4-(5-(trifluoromethyl)-1,3,4-oxadiazol-2-yl)benzyl)-N-(pyridin-3-yl)methanesulfonamide] | 957 | 50 | 47900
3 | CS(=O)(=O)N(Cc1ccc(-c2nnc(C(F)(F)F)o2)cc1)c1ccccc1 [Compound 11167, N-phenyl-N-(4-(5-(trifluoromethyl)-1,3,4-oxadiazol-2-yl)benzyl)methanesulfonamide] | 900 | 38 | 34200
4 | CS(=O)(=O)N(Cc1ccc(-c2nnc(C(F)(F)F)o2)cc1F)c1ccccc1 [Compound 11169, N-(2-fluoro-4-(5-(trifluoromethyl)-1,3,4-oxadiazol-2-yl)benzyl)-N-phenylmethanesulfonamide] | 1081 | 38 | 41100
5 | CS(=O)(=O)N(Cc1ccc(-c2nnc(C(F)(F)F)o2)cn1)c1ccccc1 [Compound 11171, N-phenyl-N-((5-(5-(trifluoromethyl)-1,3,4-oxadiazol-2-yl)pyridin-2-yl)methyl)methanesulfonamide] | 1267 | 21 | 26600
6 | CS(=O)(=O)N(Cc1ccc(-c2nnc(C(F)(F)F)o2)nc1)c1ccccc1 [Compound 11173, N-phenyl-N-((6-(5-(trifluoromethyl)-1,3,4-oxadiazol-2-yl)pyridin-3-yl)methyl)methanesulfonamide] | 43 | 661 | 28600
7 | Cc1cccc(N(Cc2ccc(-c3nnc(C(F)(F)F)o3)cc2F)S(C)(=O)=O)c1 [Compound 11177, N-(2-fluoro-4-(5-(trifluoromethyl)-1,3,4-oxadiazol-2-yl)benzyl)-N-(m-tolyl)methanesulfonamide] | 332 | 57 | 18900
8 | COc1cccc(N(Cc2ccc(-c3nnc(C(F)(F)F)o3)cc2F)S(C)(=O)=O)c1 [Compound 11179, N-(2-fluoro-4-(5-(trifluoromethyl)-1,3,4-oxadiazol-2-yl)benzyl)-N-(3-methoxyphenyl)methanesulfonamide] | 211 | 37 | 7810
9 | CS(=O)(=O)N(Cc1ccc(-c2nnc(C(F)F)o2)c(F)c1)c1ccccc1 [Compound 11184, N-(4-(5-(difluoromethyl)-1,3,4-oxadiazol-2-yl)-3-fluorobenzyl)-N-phenylmethanesulfonamide] | 63 | 36 | 2270
10 | CS(=O)(=O)N(Cc1ccc(-c2nnc(C(F)(F)F)o2)cc1F)c1cccc(Cl)c1 [Compound 11190, N-(3-chlorophenyl)-N-(2-fluoro-4-(5-(trifluoromethyl)-1,3,4-oxadiazol-2-yl)benzyl)methanesulfonamide] | 151 | 129 | 19500
11 | COc1ccc(N(Cc2ccc(-c3nnc(C(F)(F)F)o3)cc2F)S(C)(=O)=O)cc1 [Compound 11192, N-(2-fluoro-4-(5-(trifluoromethyl)-1,3,4-oxadiazol-2-yl)benzyl)-N-(4-methoxyphenyl)methanesulfonamide] | 108 | 65 | 7000
12 | CS(=O)(=O)N(Cc1ccc(-c2nnc(C(F)(F)F)o2)cc1F)c1cccc(Br)c1 [Compound 11196, N-(3-bromophenyl)-N-(2-fluoro-4-(5-(trifluoromethyl)-1,3,4-oxadiazol-2-yl)benzyl)methanesulfonamide] | 441 | 65 | 28700
13 | CS(=O)(=O)N(Cc1ccc(-c2nnc(C(F)(F)F)o2)cn1)c1cccc(F)c1 [Compound 11216, N-(3-fluorophenyl)-N-((5-(5-(trifluoromethyl)-1,3,4-oxadiazol-2-yl)pyridin-2-yl)methyl)methanesulfonamide] | 368 | 76 | 28000
14 | CS(=O)(=O)N(Cc1ccc(-c2nnc(C(F)(F)F)o2)cc1F)c1ccc(C(F)(F)F)cc1 [Compound 11220, N-(2-fluoro-4-(5-(trifluoromethyl)-1,3,4-oxadiazol-2-yl)benzyl)-N-(4-(trifluoromethyl)phenyl)methanesulfonamide] | 845 | 31 | 26200
15 | CS(=O)(=O)N(Cc1ccc(-c2nnc(C(F)(F)F)o2)cc1F)c1ccc2c(c1)OCO2 [Compound 11226, N-(benzo[d][1,3]dioxol-5-yl)-N-(2-fluoro-4-(5-(trifluoromethyl)-1,3,4-oxadiazol-2-yl)benzyl)methanesulfonamide] | 297 | 39 | 11600
16 | CCS(=O)(=O)N(Cc1ccc(-c2nnc(C(F)(F)F)o2)cn1)c1ccc(F)c(Cl)c1 [Compound 11429, N-(3-chloro-4-fluorophenyl)-N-((5-(5-(trifluoromethyl)-1,3,4-oxadiazol-2-yl)pyridin-2-yl)methyl)ethanesulfonamide] | 288 | 65 | 18700
17 | CCS(=O)(=O)N(Cc1ccc(-c2nnc(C(F)(F)F)o2)cn1)c1ccccc1 [Compound 11430, N-phenyl-N-((5-(5-(trifluoromethyl)-1,3,4-oxadiazol-2-yl)pyridin-2-yl)methyl)ethanesulfonamide] | 529 | 42 | 22200
18 | O=S(=O)(CCN1CCN(c2noc3ccccc23)CC1)N(Cc1ccc(-c2nnc(C(F)F)o2)cc1)c1ccccc1 [Compound 11844, 2-(4-(benzo[d]isoxazol-3-yl)piperazin-1-yl)-N-(4-(5-(difluoromethyl)-1,3,4-oxadiazol-2-yl)benzyl)-N-phenylethane-1-sulfonamide] | 172 | 581 | 
19 | COc1ccccc1C1CCN(CCS(=O)(=O)N(Cc2ccc(-c3nnc(C(F)F)o3)cc2)c2ccccc2)CC1 [Compound 11845, N-(4-(5-(difluoromethyl)-1,3,4-oxadiazol-2-yl)benzyl)-2-(4-(2-methoxyphenyl)piperidin-1-yl)-N-phenylethane-1-sulfonamide] | 103 | 973 | 
20 | NC(=O)[C@@H]1C[C@@H](O)CN1CCS(=O)(=O)N(Cc1ccc(-c2nnc(C(F)F)o2)cn1)c1ccccc1 [Compound 11849, (2S,4R)-1-(2-(N-((5-(5-(difluoromethyl)-1,3,4-oxadiazol-2-yl)pyridin-2-yl)methyl)-N-phenylsulfamoyl)ethyl)-4-hydroxypyrrolidine-2-carboxamide] | 1605 | 62.3 | 
